Experimental data: patent US20090197955A1, “METHODS OF IMPROVING DHA DEPOSITION AND RELATED FUNCTION AND/OR DEVELOPMENT” (Monsanto Company, priority 2008, published 2009)

Assay: Fatty acid composition of pig tissues (ham, loin, belly, skin) after feeding SDA ethyl ester diets, 35 day study
Assay type: in vivo, pigs
Experimental: A 35 day study was conducted to determine whether pigs fed a diet containing SDA could enhance tissues with improved fatty acid profiles including increased levels of SDA, EPA, and DHA.
Four test diets (Treatment 2, 3, 4, and 5) with SDA ethyl ester substituted for corn oil to provide 0.2, 0.4, 0.6 and 0.8% (w/w SDA active ingredient, as-is basis) were fed ad libitum to one pen of four pigs throughout the 35-day test period Table 4). All diets were fed in meal form. Treatment 6 was fed the same diet as Treatment 5, but for a duration of only 21 days.
All pigs were individually weighed at initiation of the acclimation and test period, and immediately prior to slaughter. Feed consumption per pen was recorded. Upon completion of the feeding period, pigs were slaughtered for tissue collection and carcass evaluation. Pigs were slaughtered using standard industry practices (electrical stunning, exsanguinations, scalding, dehairing and evisceration). Live weights prior to slaughter and hot carcass weights were recorded. The left side of each carcass was fabricated and samples were obtained from the loin (longissimus muscle), ham (semimembranosus muscle) and belly (a section from the center of the belly) for sensory evaluation, fatty acid, and proximate analysis. Prior to removing the sample for sensory and fatty and proximate analysis from the belly the firmness of the belly was evaluated using a flop test. At 24 hr postmortem fat thickness (10th rib), loin eye area (10th rib), visual color, firmness and marbling, Minolta color (L*a*b*), pH, and drip loss were measured.
In order to evaluate the fatty acid composition of pig tissues (loin, ham, skin, and belly), samples were stored at −80° C. until evaluation. After thawing, ˜22 g of fresh pig tissue was chopped into small pieces and thoroughly mixed before 10 g was sub sampled and lyophilized. Lyophilized samples were ground in 30 ml Sarstedt tubes with two ball bearings using a Mega Grinder. Ground samples (loin and ham: 50 mg; skin: 100 mg; belly: 150 mg; diet: 500 mg) were directly methylated with sulfuric acid in methanol (loin and ham: 1 mL; skin: 3 mL; belly: 10 mL; diet: 1.5 mL) sealed in the presence of butylated hydroxytoluene (50 mg BHT in 100 ml reagent) in reflux conditions of 90° C. Resultant fatty acid methyl esters (FAME's) were separated by capillary gas chromatography (GC) and detected by flame ionization detector (FID). The column used was a Supelco Omegawax 250 capillary column with dimensions of 30 m×0.25 mm×0.25 μm film thickness. The run time was 32 minutes. Peaks were identified based on their relative retention time compared to a FAME reference mixture. Quantification was achieved by using an internal standard (c15:0 triacylglyceride (TAG) for pig tissue samples and c17:0 TAG for diet samples). Results are reported as FA g/100 g fat with theoretical response correction.
For Table 6 below, each value represents g/100 g total fatty acids a mean of 4 samples (1 sample from each of 4 pigs) per treatment.

## CC/C=C\C/C=C\C/C=C\C/C=C\CCCCC(=O)O [SDA, stearidonic acid]
SDA 0.6%, 35 Day
  18:4 n-3, ham: 3.56c mg FA/100 g of fresh tissue
  20:1 n-9, ham: 13.3 mg FA/100 g of fresh tissue
  20:2 n-6, ham: 6.1b mg FA/100 g of fresh tissue
  20:3 n-3, ham: 0.87 mg FA/100 g of fresh tissue
  20:4 n-3, ham: 5.85c mg FA/100 g of fresh tissue
  20:4 n-6, ham: 55.3 mg FA/100 g of fresh tissue
  20:5 n-3, ham: 11.32bc mg FA/100 g of fresh tissue
  22:1 n-11, ham: 0.58a mg FA/100 g of fresh tissue
  22:5 n-3, ham: 14.4bc mg FA/100 g of fresh tissue
  22:6 n-3, ham: 2.14 mg FA/100 g of fresh tissue
  Lipid content, ham: 2.24%
  Total PUFA, ham: 337.7 mg FA/100 g of fresh tissue
  Total monoenes, ham: 1039 mg FA/100 g of fresh tissue
  Total n-3, ham: 43.1b mg FA/100 g of fresh tissue
  Total n-6, ham: 294.5 mg FA/100 g of fresh tissue
  Total saturates, ham: 765.2 mg FA/100 g of fresh tissue
  n-3/n-6, ham: 0.147
SDA 0.8%, 21 Day
  12:0, ham: 2.2 mg FA/100 g of fresh tissue
  14:0, ham: 36.8 mg FA/100 g of fresh tissue
  16:0, ham: 701.1 mg FA/100 g of fresh tissue
  16:1 n-7, ham: 108.3 mg FA/100 g of fresh tissue
  18:0, ham: 358.1 mg FA/100 g of fresh tissue
  18:1 n-7, ham: 138.1 mg FA/100 g of fresh tissue
  18:1 n-9, ham: 1266.2 mg FA/100 g of fresh tissue
  18:2 n-6, ham: 290.7 mg FA/100 g of fresh tissue
  18:3 n-3, ham: 8.66 mg FA/100 g of fresh tissue
  18:4 n-3, ham: 3.67c mg FA/100 g of fresh tissue
  20:1 n-9, ham: 21.8 mg FA/100 g of fresh tissue
  20:2 n-6, ham: 11.3a mg FA/100 g of fresh tissue
  20:3 n-3, ham: 1.33 mg FA/100 g of fresh tissue
  20:4 n-3, ham: 7.23c mg FA/100 g of fresh tissue
  20:4 n-6, ham: 63.4 mg FA/100 g of fresh tissue
  20:5 n-3, ham: 9.68b mg FA/100 g of fresh tissue
  22:1 n-11, ham: 0.95ab mg FA/100 g of fresh tissue
  22:5 n-3, ham: 13.2bc mg FA/100 g of fresh tissue
  22:6 n-3, ham: 1.85 mg FA/100 g of fresh tissue
  Lipid content, ham: 3.23%
  Total PUFA, ham: 433.7 mg FA/100 g of fresh tissue
  Total monoenes, ham: 1546 mg FA/100 g of fresh tissue
  Total n-3, ham: 45.6b mg FA/100 g of fresh tissue
  Total n-6, ham: 388.1 mg FA/100 g of fresh tissue
  Total saturates, ham: 1104.4 mg FA/100 g of fresh tissue
  n-3/n-6, ham: 0.121c
SDA 0.8%, 35 Day
  12:0, ham: 1.04 mg FA/100 g of fresh tissue
  14:0, ham: 18.3 mg FA/100 g of fresh tissue
  16:0, ham: 386.7 mg FA/100 g of fresh tissue
  16:1 n-7, ham: 52.8 mg FA/100 g of fresh tissue
  18:0, ham: 206.6 mg FA/100 g of fresh tissue
  18:1 n-7, ham: 81.5 mg FA/100 g of fresh tissue
  18:1 n-9, ham: 685.9 mg FA/100 g of fresh tissue
  18:2 n-6, ham: 208.6 mg FA/100 g of fresh tissue
  18:3 n-3, ham: 4.70 mg FA/100 g of fresh tissue
  18:4 n-3, ham: 4.09c mg FA/100 g of fresh tissue
  20:1 n-9, ham: 9.9 mg FA/100 g of fresh tissue
  20:2 n-6, ham: 5.1b mg FA/100 g of fresh tissue
  20:3 n-3, ham: 0.62 mg FA/100 g of fresh tissue
  20:4 n-3, ham: 5.36bc mg FA/100 g of fresh tissue
  20:4 n-6, ham: 54.2 mg FA/100 g of fresh tissue
  20:5 n-3, ham: 14.69c mg FA/100 g of fresh tissue
  22:1 n-11, ham: 0.57a mg FA/100 g of fresh tissue
  22:5 n-3, ham: 14.2bc mg FA/100 g of fresh tissue
  22:6 n-3, ham: 2.35 mg FA/100 g of fresh tissue
  Lipid content, ham: 1.88%
  Total PUFA, ham: 330.6 mg FA/100 g of fresh tissue
  Total monoenes, ham: 846 mg FA/100 g of fresh tissue
  Total n-3, ham: 46.0b mg FA/100 g of fresh tissue
  Total n-6, ham: 284.6 mg FA/100 g of fresh tissue
  Total saturates, ham: 616.6 mg FA/100 g of fresh tissue
  n-3/n-6, ham: 0.162
SDA fed for the last 35 days prior to slaughter
  Omega 3 fatty acid enrichment in belly, loin, ham and skin tissues as compared to the control: significant increase
Treatment 5 (35 day) vs Treatment six (21 day), 0.8% SDA, ham
  More DHA deposition with 35 days than with 21 days of SDA consumption: about 27%
